Columns and labels:
[1] = (§1) The drug is tested on Z-008 corresponding to metagenome with ENA study accession number: PRJEB37062 and ENA sample accession number: ERS12561808 for biotransformation under anaerobic condition. The drug concentrations were measured over 9 timepoints collected between 0 and 24 hours of incubation by liquid-chromatography-coupled mass spectrometry (LC–MS); details: 2 µM
[2] = (§2) The drug is tested on WLS-350 corresponding to human gut metagenome with ENA study accession number: PRJEB37062 and ENA sample accession number: ERS12561789 for biotransformation under anaerobic condition. The drug concentrations were measured over 9 timepoints collected between 0 and 24 hours of incubation by liquid-chromatography-coupled mass spectrometry (LC–MS); details: 2 µM
[3] = human gut metagenome, 24 h, 2 µM
[4] = as §1, with “Z-023” for “Z-008”, “ERS12561822” for “ERS12561808”; details: 2 µM
[5] = as §2, with “Z-016” for “WLS-350”, “mouse” for “human”, “ERS12561815” for “ERS12561789”; details: 2 µM
[6] = as §1, with “Z-010” for “Z-008”, “ERS12561810” for “ERS12561808”; details: 2 µM
[7] = human gut metagenome, 24 h, 2 µM; remark: listed apart in the source
[8] = as §2, with “WLS-170” for “WLS-350”, “ERS12561762” for “ERS12561789”; details: 2 µM
[9] = as §2, with “WLS-007” for “WLS-350”, “ERS12561742” for “ERS12561789”; details: 2 µM
[10] = as §2, with “WLS-038” for “WLS-350”, “ERS12561745” for “ERS12561789”; details: 2 µM
[11] = human gut metagenome, 24 h, 2 µM; remark: listed apart in the source
[12] = human gut metagenome, 24 h, 2 µM; remark: listed apart in the source
[13] = as §1, with “Z-021” for “Z-008”, “ERS12561820” for “ERS12561808”; details: 2 µM
[14] = as §2, with “Z-020” for “WLS-350”, “rabbit” for “human”, “ERS12561819” for “ERS12561789”; details: 2 µM
[15] = as §2, with “Z-006” for “WLS-350”, “mouse” for “human”, “ERS12561806” for “ERS12561789”; details: 2 µM
[16] = human gut metagenome, 24 h, 2 µM; remark: listed apart in the source
[17] = human gut metagenome, 24 h, 2 µM; remark: listed apart in the source
[18] = as §1, with “Z-027” for “Z-008”, “ERS12561826” for “ERS12561808”; details: 2 µM
[19] = human gut metagenome, 24 h, 2 µM; remark: listed apart in the source
[20] = as §2, with “Z-018” for “WLS-350”, “pig” for “human”, “ERS12561817” for “ERS12561789”; details: 2 µM
Note: call rule not given here.

| SMILES | Bacterial Biotransformation [1] | Bacterial Biotransformation [2] | Bacterial Biotransformation [3] | Bacterial Biotransformation [4] | Bacterial Biotransformation [5] | Bacterial Biotransformation [6] | Bacterial Biotransformation [7] | Bacterial Biotransformation [8] | Bacterial Biotransformation [9] | Bacterial Biotransformation [10] | Bacterial Biotransformation [11] | Bacterial Biotransformation [12] | Bacterial Biotransformation [13] | Bacterial Biotransformation [14] | Bacterial Biotransformation [15] | Bacterial Biotransformation [16] | Bacterial Biotransformation [17] | Bacterial Biotransformation [18] | Bacterial Biotransformation [19] | Bacterial Biotransformation [20] |
| --- | --- | --- | --- | --- | --- | --- | --- | --- | --- | --- | --- | --- | --- | --- | --- | --- | --- | --- | --- | --- |
| COc1ccc2c3c1O[C@H]1C[C@@H](O)C=C[C@@]31CCN(C)C2 [GALANTAMINE] | Compound NOT metabolized | Compound metabolized | Compound NOT metabolized | Compound NOT metabolized | Compound NOT metabolized | Compound metabolized | Compound NOT metabolized | Compound metabolized | Compound NOT metabolized | Compound NOT metabolized | Compound NOT metabolized | Compound NOT metabolized | Compound NOT metabolized | Compound NOT metabolized | Compound NOT metabolized | Compound metabolized | Compound NOT metabolized | Compound NOT metabolized | Compound NOT metabolized | Compound NOT metabolized |
| Br.CN(C)CCCC1(c2ccc(F)cc2)OCc2cc(C#N)ccc21 (stereo not given) [CITALOPRAM HYDROBROMIDE] | Compound NOT metabolized | Compound NOT metabolized | Compound NOT metabolized | Compound NOT metabolized | Compound NOT metabolized | Compound metabolized | Compound NOT metabolized | Compound metabolized | Compound NOT metabolized | Compound NOT metabolized | Compound NOT metabolized | Compound metabolized | Compound NOT metabolized | Compound NOT metabolized | Compound NOT metabolized | Compound metabolized | Compound metabolized | Compound NOT metabolized | Compound NOT metabolized | Compound NOT metabolized |
| CN(C)CCC=C1c2ccccc2C=Cc2ccccc21 [CYCLOBENZAPRINE] | Compound NOT metabolized | Compound metabolized | Compound metabolized | Compound metabolized | Compound NOT metabolized | Compound metabolized | Compound metabolized | Compound metabolized | Compound metabolized | Compound NOT metabolized | Compound metabolized | Compound metabolized | Compound metabolized | Compound NOT metabolized | Compound NOT metabolized | Compound metabolized | Compound metabolized | Compound NOT metabolized | Compound NOT metabolized | Compound metabolized |
| CCN(CC)CC#CCOC(=O)C(O)(c1ccccc1)C1CCCCC1.Cl (stereo not given) [OXYBUTYNIN CHLORIDE] | Compound NOT metabolized | Compound metabolized | Compound metabolized | Compound metabolized | Compound NOT metabolized | Compound metabolized | Compound metabolized | Compound metabolized | Compound metabolized | Compound metabolized | Compound metabolized | Compound metabolized | Compound metabolized | Compound metabolized | Compound NOT metabolized | Compound metabolized | Compound metabolized | Compound NOT metabolized | Compound metabolized | Compound metabolized |
| CN/C(=N/CCSCc1nc[nH]c1C)NC#N [CIMETIDINE] | Compound NOT metabolized | Compound NOT metabolized | Compound metabolized | Compound NOT metabolized | Compound NOT metabolized | Compound metabolized | Compound NOT metabolized | Compound metabolized | Compound NOT metabolized | Compound NOT metabolized | Compound metabolized | Compound metabolized | Compound NOT metabolized | Compound NOT metabolized | Compound NOT metabolized | Compound metabolized | Compound metabolized | Compound NOT metabolized | Compound NOT metabolized | Compound metabolized |
| CC(=O)OCC(=O)[C@@]1(O)[C@@H](C)C[C@H]2[C@@H]3CCC4=CC(=O)C=C[C@]4(C)[C@@]3(F)[C@@H](O)C[C@@]21C [BETAMETHASONE ACETATE] | Compound NOT metabolized | Compound metabolized | Compound metabolized | Compound metabolized | Compound metabolized | Compound metabolized | Compound metabolized | Compound metabolized | Compound metabolized | Compound metabolized | Compound metabolized | Compound metabolized | Compound metabolized | Compound metabolized | Compound metabolized | Compound metabolized | Compound metabolized | Compound NOT metabolized | Compound NOT metabolized | Compound NOT metabolized |
| CO[C@]12C[C@@H](COC(=O)c3cncc(Br)c3)CN(C)[C@@H]1Cc1cn(C)c3cccc2c13 [NICERGOLINE] | Compound NOT metabolized | Compound NOT metabolized | Compound NOT metabolized | Compound metabolized | Compound metabolized | Compound metabolized | Compound NOT metabolized | Compound NOT metabolized | Compound NOT metabolized | Compound NOT metabolized | Compound NOT metabolized | Compound NOT metabolized | Compound metabolized | Compound NOT metabolized | Compound metabolized | Compound metabolized | Compound NOT metabolized | Compound metabolized | Compound NOT metabolized | Compound metabolized |
| CCCCc1nc(Cl)c(CO)n1Cc1ccc(-c2ccccc2-c2nn[nH]n2)cc1 [LOSARTAN] | Compound NOT metabolized | Compound metabolized | Compound metabolized | Compound metabolized | Compound NOT metabolized | Compound NOT metabolized | Compound metabolized | Compound metabolized | Compound metabolized | Compound NOT metabolized | Compound metabolized | Compound NOT metabolized | Compound NOT metabolized | Compound NOT metabolized | Compound NOT metabolized | Compound metabolized | Compound metabolized | Compound NOT metabolized | Compound NOT metabolized | Compound NOT metabolized |

Source: ChEMBL document CHEMBL5724914, “Linking interpersonal differences in gut microbiota composition and drug biotransformation activity” (2024)
